Values of other authors in patent publication US20060036094A1 (priority 2004, published 2006).

Test system: phorbol myristate-induced inflammation

Substance: zoanthamine
- inhibitory activity toward phorbol myristate-induced inflammation: potent inhibitory activity
